Data taken from ChEMBL document CHEMBL1932956, “Combination of two chromophores: synthesis and PDT application of porphyrin-pentamethinium conjugate” (Bioorg Med Chem Lett, 2012).
Active and inactive are the calls of the source. The rule behind the calls is not given here.

How the values were obtained:
HL-60 [1] = test: Induction of apoptosis in human HL60 cells assessed as DNA fragmentation measured after 6 hrs following photo irradiation by trypan blue assay; assay type: functional, cell-based
HL-60 [2] = test: Cytotoxicity against human HL60 cells assessed as cell viability; assay type: functional, cell-based
HL-60 [3] = test: Induction of apoptosis in human HL60 cells assessed as cell death measured after 24 hrs following photo irradiation by trypan blue assay; assay type: functional, cell-based
UB900518 = test: Antitumor activity against human UB900518 cells xenografted in mouse assessed as tumor regression at 5 mg/kg followed by photo irradiation measured after 72 hrs; assay type: functional, organism-based; parameters: dose 5 mg/kg

`O=[N+]([O-])c1ccc(-[n+]2ccc(-c3c4nc(c(-c5cc[n+](-c6ccc([N+](=O)[O-])cc6[N+](=O)[O-])cc5)c5ccc([nH]5)c(-c5cc[n+](-c6ccc([N+](=O)[O-])cc6[N+](=O)[O-])cc5)c5nc(c(-c6cc[n+](-c7ccc([N+](=O)[O-])cc7[N+](=O)[O-])cc6)c6ccc3[nH]6)C=C5)C=C4)cc2)c([N+](=O)[O-])c1` was tested, and the Activity (HL-60 [1]) was “Active”, the IC50 (HL-60 [2]) was 3.4 µM and the Activity (HL-60 [3]) was “Active”.
In the case of `CN(C)/C=C/C(=C\C=[N+](C)C)c1c2nc(c(C(/C=C/N(C)C)=C/C=[N+](C)C)c3ccc([nH]3)c(C(/C=C/N(C)C)=C/C=[N+](C)C)c3nc(c(C(/C=C/N(C)C)=C/C=[N+](C)C)c4ccc1[nH]4)C=C3)C=C2`, the Activity (HL-60 [1]) is reported as “Active”, the Activity (UB900518) is reported as “Active” and the IC50 (HL-60 [2]) is reported as 3 µM. For the same molecule, the Activity (HL-60 [3]) was “Active”.
